Laboratory results taken from patent US8507538B2, “Selective heterocyclic sphingosine 1 phosphate receptor modulators” (Receptos, Inc., priority 2009, dated 2013).

These molecules were tested against S1P1/EDG1 (Homo sapiens, UniProt P21453) (assay: S1P1 CRE-bla CHOK1 reporter assay (inhibition of Forskolin induced cAMP)). Conditions: agonist activity range, Table 2; read-out: S1P1 ACTIVITY.
Format: cell-based
Excerpt: A mammalian expression plasmid containing S1P1/EDG1 cloned into pcDNA3.1 was purchased from Missouri S&T cDNA Resource Centre. The nucleotide and amino acid sequence of human S1P1/EDG1 are published in Hla and Maciag (J Biol Chem, 265(1990), 9308-9313). S1P1/pcDNA3.1 was transfected into the CRE-bla CHO K1 (Invitrogen) cell line, and stable single cell clones were selected using standard techniques. Expression of functional SIP1/EDG1 receptor was confirmed by cell surface FACS with a S1P1 antibody (R&D Systems, clone 218713) and S1P-mediated inhibition of Forskolin induced cAMP.
Cells were seeded into 384-well black wall/clear bottom plates at 10^4 cells/well/19.5 μl assay media (DMEM-phenol free, 0.5% charcoal/dextran stripped serum, 2 mM glutamine, 0.1 mM NEAA, 1 mM Na-Pyruvate, 25 mM Hepes) and incubated for 18 hrs at 37° C. in 5% CO2. Dose response curves (10-point) were generated in 10 mM Hepes, 0.1% Pluronic F127, in the presence of Forskolin. Cells were treated with 0.5 μl compound in the presence of 2 μM Forskolin for 4 hrs at 37° C. The FRET-based β-lactamase fluorescent substrate (LiveBLAzer™ FRET B/G Loading Kit CC4-AM; Invitrogen) was prepared according to manufacturer's directions, and incubated with cells for 2 hrs at room temperature. Plates were read at Ex:410/Em:458 and Ex:410/Em:522, and the response ratio determined. Data was analyzed by non-linear regression to determine the EC50 for inhibition of Forskolin induced cAMP.

Chain of S1P1/EDG1 (P21453 whole entry): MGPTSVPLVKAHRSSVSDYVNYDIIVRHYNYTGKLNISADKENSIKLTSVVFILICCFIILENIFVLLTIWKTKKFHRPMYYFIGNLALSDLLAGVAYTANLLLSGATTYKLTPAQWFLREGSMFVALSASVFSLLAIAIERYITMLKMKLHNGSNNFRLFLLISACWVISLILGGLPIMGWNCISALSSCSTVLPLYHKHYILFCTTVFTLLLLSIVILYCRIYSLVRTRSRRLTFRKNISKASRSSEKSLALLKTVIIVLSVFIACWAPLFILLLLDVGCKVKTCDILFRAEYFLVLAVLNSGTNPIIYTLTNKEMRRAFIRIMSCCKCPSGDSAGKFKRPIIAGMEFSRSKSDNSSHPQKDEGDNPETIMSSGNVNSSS

First: CC(C)Oc1ccc(-c2nnc(-c3cccc4c3CC[C@@H]4NC(=O)N3CC(O)C3)s2)cc1C#N [Compound 64]
Second: COC(=O)N[C@H]1CCc2c(-c3nnc(-c4ccc(OC(C)C)c(C#N)c4)s3)cccc21 [Compound 68]
The EC50 of the first is higher: 500 to 5000 pM for the first, 50 to 500 pM for the second.

`CC(C)Oc1ccc(-c2nnc(-c3cccc4c3CC[C@@H]4NC(=O)N3CC(O)C3)s2)cc1C#N` [Compound 65] and `CC(C)Oc1ccc(-c2nnc(-c3cccc4c3CC[C@H]4NC(=O)N(C)C)s2)cc1C#N` [Compound 66] fall in the same range of EC50: 50 to 500 pM for the first, 50 to 500 pM for the second.

`CC(C)Oc1ccc(-c2nnc(-c3cccc4c3CC[C@@H]4NC(=O)N(C)C)s2)cc1C#N` [Compound 67] and `CC(C)Oc1ccc(-c2ncc(-c3cccc4c3CC[C@@H]4NC(=O)CN(C)C)s2)cc1C#N` [Compound 81] fall in the same range of EC50: 500 to 5000 pM for the first, 500 to 5000 pM for the second.

First: CC(C)Oc1ccc(-c2ncc(-c3cccc4c3CC[C@@H]4O)s2)cc1C#N [Compound 70, (S)-5-(5-(1-hydroxy-2,3-dihydro-1H-inden-4-yl)thiazol-2-yl)-2-isopropoxybenzonitrile]
Second: CC(=O)N[C@H]1CCc2c(-c3cnc(-c4ccc(OC(C)C)c(C#N)c4)s3)cccc21 [Compound 87]
The EC50 of the first is higher: 500 to 5000 pM for the first, 50 to 500 pM for the second.

`CC(C)Oc1ccc(-c2ncc(-c3cccc4c3CC[C@@H]4NC(=O)CO)s2)cc1C#N` [Compound 73, (S)-N-(4-(2-(3-cyano-4-isopropoxyphenyl)thiazol-5-yl)-2,3-dihydro-1H-inden-1-yl)-2-hydroxyacetamide] and `CC(C)Oc1ccc(-c2ncc(-c3cccc4c3CC[C@@H]4NC(=O)CN)s2)cc1C#N` [Compound 77] fall in the same range of EC50: 50 to 500 pM for the first, 50 to 500 pM for the second.

First: COCC(=O)N[C@H]1CCc2c(-c3cnc(-c4ccc(OC(C)C)c(C#N)c4)s3)cccc21 [Compound 75]
Second: CC(C)Oc1ccc(-c2ncc(-c3cccc4c3CC[C@@H]4NC(=O)CN)s2)cc1C#N [Compound 78]
The EC50 of the first is lower: 50 to 500 pM for the first, 500 to 5000 pM for the second.

`COCC(=O)N[C@H]1CCc2c(-c3cnc(-c4ccc(OC(C)C)c(C#N)c4)s3)cccc21` [Compound 76, (S)-N-(4-(2-(3-cyano-4-isopropoxyphenyl)thiazol-5-yl)-2,3-dihydro-1H-inden-1-yl)-2-methoxyacetamide] and `COC(=O)N[C@H]1CCc2c(-c3cnc(-c4ccc(OC(C)C)c(C#N)c4)s3)cccc21` [Compound 89] fall in the same range of EC50: 500 to 5000 pM for the first, 500 to 5000 pM for the second.

First: CC(C)Oc1ccc(-c2ncc(-c3cccc4c3CC[C@@H]4NC(=O)[C@H](N)CO)s2)cc1C#N [Compound 79]
Second: CC(=O)N[C@H]1CCc2c(-c3cnc(-c4ccc(OC(C)C)c(C#N)c4)s3)cccc21 [Compound 88]
The EC50 of the first is lower: 50 to 500 pM for the first, 500 to 5000 pM for the second. The first is the more potent here.

Compared with `CC(C)Oc1ccc(-c2ncc(-c3cccc4c3CC[C@@H]4NC(=O)Cc3ccccc3)s2)cc1C#N` [Compound 83], `CC(C)Oc1ccc(-c2ncc(-c3cccc4c3CC[C@@H]4NCC(=O)O)s2)cc1C#N` [Compound 97, (S)-2-((4-(2-(3-cyano-4-isopropoxyphenyl)thiazol-5-yl)-2,3-dihydro-1H-inden-1-yl)amino)acetic acid] is lower in EC50: greater than 5000 pM for the first, 50 to 500 pM for the second. The second is the more potent here.

First: CC(C)Oc1ccc(-c2ncc(-c3cccc4c3CC[C@@H]4NC(=O)CN3CCCC3)s2)cc1C#N [Compound 85]
Second: CC(C)Oc1ccc(-c2ncc(-c3cccc4c3CC[C@@H]4NCC(=O)N3CCCC3)s2)cc1C#N [Compound 100]
The EC50 of the first is higher: greater than 5000 pM for the first, 50 to 500 pM for the second. The second is the more potent here.

`CC(C)Oc1ccc(-c2ncc(-c3cccc4c3CC[C@@H]4NCCO)s2)cc1C#N` [Compound 92, (S)-5-(5-(1-((2-hydroxyethyl)amino)-2,3-dihydro-1H-inden-4-yl)thiazol-2-yl)-2-isopropoxybenzonitrile] and `COCCN[C@H]1CCc2c(-c3cnc(-c4ccc(OC(C)C)c(C#N)c4)s3)cccc21` [Compound 93] fall in the same range of EC50: 500 to 5000 pM for the first, 500 to 5000 pM for the second.

`CC(C)Oc1ccc(-c2ncc(-c3cccc4c3CCC4N[C@H](C)CO)s2)cc1C#N` (stereo partly drawn) [Compound 95] and `COC(=O)CN[C@H]1CCc2c(-c3cnc(-c4ccc(OC(C)C)c(C#N)c4)s3)cccc21` [Compound 99, (S)-methyl 2-((4-(2-(3-cyano-4-isopropoxyphenyl)thiazol-5-yl)-2,3-dihydro-1H-inden-1-yl)amino)acetate] fall in the same range of EC50: 500 to 5000 pM for the first, 500 to 5000 pM for the second.

`CC(C)Oc1ccc(-c2ncc(-c3cccc4c3CC[C@@H]4NCC(=O)N(C)C)s2)cc1C#N` [Compound 98] and `CC(C)Oc1ccc(-c2ncc(-c3cccc4c3CC[C@@H]4NS(=O)(=O)CCN(C)C)s2)cc1C#N` [Compound 123] fall in the same range of EC50: 500 to 5000 pM for the first, 500 to 5000 pM for the second.

First: CC(C)Oc1ccc(-c2ncc(-c3cccc4c3CC[C@@H]4NCC(=O)N3CCCC3)s2)cc1C#N [Compound 101]
Second: CC(C)Oc1ccc(-c2ncc(-c3cccc4c3CC[C@@H]4NCC(=O)N3CCNCC3)s2)cc1C#N [Compound 107]
The EC50 of the first is higher: greater than 5000 pM for the first, 500 to 5000 pM for the second. The second is the more potent here.

First: CC(C)Oc1ccc(-c2ncc(-c3cccc4c3CC[C@@H]4NCC(=O)N3CC[C@H](O)C3)s2)cc1C#N [Compound 103]
Second: CC(C)Oc1ccc(-c2ncc(-c3cccc4c3CC[C@@H]4NCC(=O)N3CCC[C@H](O)C3)s2)cc1C#N [Compound 106]
The EC50 of the first is lower: 50 to 500 pM for the first, greater than 5000 pM for the second. The first is the more potent here.

First: CC(C)Oc1ccc(-c2ncc(-c3cccc4c3CC[C@@H]4NCC(=O)N3CC[C@H](O)C3)s2)cc1C#N [Compound 104, 5-(5-((S)-1-((2-((S)-3-hydroxypyrrolidin-1-yl)-2-oxoethyl)amino)-2,3-dihydro-1H-inden-4-yl)thiazol-2-yl)-2-isopropoxybenzonitrile]
Second: CC(C)Oc1ccc(-c2ncc(-c3cccc4c3CC[C@@H]4NCC(=O)N3CCNCC3)s2)cc1C#N [Compound 108]
The EC50 of the first is lower: 500 to 5000 pM for the first, greater than 5000 pM for the second. The first is the more potent here.

Compared with `CC(C)Oc1ccc(-c2ncc(-c3cccc4c3CC[C@@H]4NCC(=O)N3CC[C@H](O)C3)s2)cc1C#N` [Compound 105], `CC(C)Oc1ccc(-c2ncc(-c3cccc4c3CC[C@@H]4NS(=O)(=O)CCN3CC[C@H](O)C3)s2)cc1C#N` [Compound 131] is lower in EC50: greater than 5000 pM for the first, 500 to 5000 pM for the second.

Compared with `CC(C)Oc1ccc(-c2ncc(-c3cccc4c3CC[C@@H]4NCc3ncc[nH]3)s2)cc1C#N` [Compound 110, (S)-5-(5-(1-(((1H-imidazol-2-yl)methyl)amino)-2,3-dihydro-1H-inden-4-yl)thiazol-2-yl)-2-isopropoxybenzonitrile], `CC(C)Oc1ccc(-c2ncc(-c3cccc4c3CC[C@@H]4NS(C)(=O)=O)s2)cc1C#N` [Compound 112, (S)-N-(4-(2-(3-cyano-4-isopropoxyphenyl)thiazol-5-yl)-2,3-dihydro-1H-inden-1-yl)methanesulfonamide] is lower in EC50: 500 to 5000 pM for the first, 50 to 500 pM for the second.

`CCS(=O)(=O)N[C@H]1CCc2c(-c3cnc(-c4ccc(OC(C)C)c(C#N)c4)s3)cccc21` [Compound 113] and `COCCS(=O)(=O)N[C@H]1CCc2c(-c3cnc(-c4ccc(OC(C)C)c(C#N)c4)s3)cccc21` [Compound 115] fall in the same range of EC50: 50 to 500 pM for the first, 50 to 500 pM for the second.

`COCCS(=O)(=O)N[C@H]1CCc2c(-c3cnc(-c4ccc(OC(C)C)c(C#N)c4)s3)cccc21` [Compound 116] and `CNCCS(=O)(=O)N[C@H]1CCc2c(-c3cnc(-c4ccc(OC(C)C)c(C#N)c4)s3)cccc21` [Compound 125] fall in the same range of EC50: 500 to 5000 pM for the first, 500 to 5000 pM for the second.

First: CC(C)Oc1ccc(-c2ncc(-c3cccc4c3CC[C@@H]4NS(=O)(=O)C3CC3)s2)cc1C#N [Compound 117]
Second: CC(C)Oc1ccc(-c2ncc(-c3cccc4c3CC[C@@H]4NS(=O)(=O)CCN3CCC3)s2)cc1C#N [Compound 127]
The EC50 of the first is lower: 50 to 500 pM for the first, 500 to 5000 pM for the second. The first is the more potent here.

Compared with `CC(C)Oc1ccc(-c2ncc(-c3cccc4c3CC[C@@H]4NS(=O)(=O)CCN3CCOCC3)s2)cc1C#N` [Compound 121], `CC(C)Oc1ccc(-c2ncc(-c3cccc4c3CC[C@@H]4NS(=O)(=O)CCN3CCC3)s2)cc1C#N` [Compound 128] is higher in EC50: 500 to 5000 pM for the first, greater than 5000 pM for the second.

`CC(C)Oc1ccc(-c2ncc(-c3cccc4c3CC[C@@H]4NS(=O)(=O)CCN3CCCC3)s2)cc1C#N` [Compound 129] and `CC(C)Oc1ccc(-c2ncc(-c3cccc4c3CC[C@@H]4NS(=O)(=O)CCN3CCCCC3)s2)cc1C#N` [Compound 139] cannot be ordered by EC50: greater than 5000 pM for the first, greater than 5000 pM for the second.

`CC(C)Oc1ccc(-c2ncc(-c3cccc4c3CC[C@@H]4NS(=O)(=O)CCN3CCCC3)s2)cc1C#N` [Compound 130] and `CC(C)Oc1ccc(-c2ncc(-c3cccc4c3CC[C@@H]4NS(=O)(=O)CCN3CCC[C@H](O)C3)s2)cc1C#N` [Compound 142] fall in the same range of EC50: 500 to 5000 pM for the first, 500 to 5000 pM for the second.

`CC(C)Oc1ccc(-c2ncc(-c3cccc4c3CC[C@@H]4NS(=O)(=O)CCN3CC[C@H](N)C3)s2)cc1C#N` [Compound 135] and `CC(C)Oc1ccc(-c2ncc(-c3cccc4c3CC[C@@H]4NS(=O)(=O)CCN3CC[C@H](N(C)C)C3)s2)cc1C#N` [Compound 137] cannot be ordered by EC50: greater than 5000 pM for the first, greater than 5000 pM for the second.

Compared with `CC(C)Oc1ccc(-c2ncc(-c3cccc4c3CC[C@@H]4NS(=O)(=O)CCN3CC[C@@H](N(C)C)C3)s2)cc1C#N` [Compound 138], `CC(C)Oc1ccc(-c2ncc(-c3cccc4c3CC[C@@H]4NS(=O)(=O)CCN3CCC[C@H](O)C3)s2)cc1C#N` [Compound 144] is lower in EC50: greater than 5000 pM for the first, 500 to 5000 pM for the second.

With `CC(C)Oc1ccc(-c2ncc(-c3cccc4c3CC[C@@H]4NS(=O)(=O)CCN3CCC(O)CC3)s2)cc1C#N` [Compound 145] the EC50 was greater than 5000 pM.
`CC(C)Oc1ccc(-c2ncc(-c3cccc4c3CC[C@@H]4NS(=O)(=O)CCN3CCC(O)CC3)s2)cc1C#N` [Compound 146] gave an EC50 of 500 to 5000 pM.
